Laboratory results published in the NIST ThermoML archive (doi:10.1016/j.fluid.2012.11.026).
Numbers after ± are expanded uncertainties.

Conditions: Liquid, Closed cell (Static) method

Structure (SMILES) | vapor or sublimation pressure (353.15 K) | vapor or sublimation pressure (363.15 K)
CCOC(=O)OCC [diethyl carbonate] | 20.74 ± 2.2 kPa | 30.23 ± 3.1 kPa
CCO [ethanol] | 108.14 ± 11 kPa | 156.04 ± 16 kPa
O [water] | 47.33 ± 4.8 kPa | 70.07 ± 7 kPa
